Experimental data from PMC12516390 (ACS Medicinal Chemistry Letters, 2025).
Like-named read-outs stand apart in the source and are kept apart here.

Legend:
recombinant M^Pro = recombinant M^Pro (Severe acute respiratory syndrome coronavirus 2, UniProt P0DTD1); assay: SARS-CoV-2 Mpro screening and IC50 determination (QS1 fluorogenic substrate, Drag assay); type: biochemical; settings: for inhibition at 10 µM: read-out: M^Pro (%inh)@10μM
PL^Pro = PL^Pro (Severe acute respiratory syndrome coronavirus 2, UniProt P0DTD1); assay: SARS-CoV-2 PLpro screening (Ac-LRGG-ACC substrate); type: biochemical; settings: read-out: PL^Pro (%inh)@10μM
[1] = recombinant M^Pro, 20 μM QS1 substrate, Table 5, read-out: IC50 (μM) M^Pro
[2] = recombinant M^Pro, 20 μM QS1 substrate, Table 3, read-out: M^Pro IC50
[3] = recombinant M^Pro, 20 μM QS1 (Ac-Abu-Tle-Leu-Gln-ACC) substrate, Table 1, read-out: M^Pro IC50

Row | SMILES | inhibition at 10 µM (PL^Pro) | inhibition at 10 µM (recombinant M^Pro) | IC50 (recombinant M^Pro; [3]) | other results
1 | COc1ccc(-c2ccc(C(=O)N3C[C@@H]4CCC[C@@H]4[C@H]3C(=O)N[C@H](C#N)C[C@@H]3CCNC3=O)c(F)c2)cc1 [22j] |  |  |  | IC50 (recombinant M^Pro; [1]): 1.27 µM
2 | COc1cccc(-c2cc(F)c(C(=O)N[C@@H](CC(C)C)C(=O)N[C@H](C#N)C[C@@H]3CCNC3=O)cc2F)c1 [18f] |  |  |  | IC50 (recombinant M^Pro; [2]): 0.245 µM
3 | COc1cccc(-c2ccc(C(=O)N[C@@H](CC(C)C)C(=O)N[C@H](C#N)C[C@@H]3CCNC3=O)c(F)c2F)c1 [18d] |  |  |  | IC50 (recombinant M^Pro; [2]): 0.171 µM
4 | COc1ccc(-c2ccc(C(=O)N[C@@H](CC(C)C)C(=O)N[C@H](C#N)C[C@@H]3CCNC3=O)cc2)cn1 [6k] | < 50% | > 95% | 1.21 µM | IC50 (recombinant M^Pro; read-out: M^Pro IC50): > 1 µM
5 | COc1ccc(-c2ccc(C(=O)N[C@@H](CC3CCCCC3)C(=O)N[C@H](C#N)C[C@@H]3CCNC3=O)cc2)cc1OC [12m] | < 50% | < 95% | 2.11 µM | 
6 | CC(C)C[C@@H](NC(=O)c1ccc(-c2ccc(F)cc2)cc1)C(=O)N[C@H](C#N)C[C@@H]1CCNC1=O [12b] | < 50% | > 95% | 4.03 µM | 
7 | COc1ccc(-c2ccc(C(=O)N[C@@H](CC(C)C)C(=O)N[C@H](C#N)C[C@@H]3CCNC3=O)c(F)c2F)cc1 [18e] |  |  |  | IC50 (recombinant M^Pro; [2]): 0.155 µM
8 | CCOc1cccc(-c2ccc(C(=O)N[C@@H](CC(C)C)C(=O)N[C@H](C#N)C[C@@H]3CCNC3=O)cc2)c1 [6i] | < 50% | > 95% | 0.798 µM | 
9 | CCC[C@H](NC(=O)c1ccc(-c2cccc(OC)c2)cc1)C(=O)N[C@H](C#N)C[C@@H]1CCNC1=O [12e] | < 50% | > 95% | 4.86 µM | 
10 | CC(C)C[C@@H](NC(=O)c1ccc(-c2ccc(Cl)cc2)cc1)C(=O)N[C@H](C#N)C[C@@H]1CCNC1=O [12a] | < 50% | > 95% | 3.24 µM | 
11 | COc1cccc(-c2ccc(C(=O)N3C[C@H]4[C@@H]([C@H]3C(=O)N[C@H](C#N)C[C@@H]3CCNC3=O)C4(C)C)cc2)c1 [22a] |  |  |  | IC50 (recombinant M^Pro; [1]): 1.02 µM
12 | CC(C)C[C@H](NC(=O)c1ccc(-c2cncc(Cl)c2)cc1)C(=O)N[C@H](C#N)C[C@@H]1CCNC1=O [6h] | < 50% | > 95% | 1.3 µM | IC50 (recombinant M^Pro; read-out: M^Pro IC50): > 1 µM
13 | COc1ccc(-c2ccc(C(=O)N3C[C@H]4[C@@H]([C@H]3C(=O)N[C@H](C#N)C[C@@H]3CCNC3=O)C4(C)C)cc2)cc1 [22b] |  |  |  | IC50 (recombinant M^Pro; [1]): 1.13 µM
14 | CCC[C@H](NC(=O)c1ccc(-c2cccc(OCC)c2)cc1)C(=O)N[C@H](C#N)C[C@@H]1CCNC1=O [12i] | < 50% | > 95% | 4.86 µM | 
15 | N#CC(CC1CCNC1=O)NC(=O)C(CC1CCCCC1)NC(=O)c1ccc(Br)cc1 (stereo not drawn) [11d] | < 50% | < 95% |  | 
16 | COc1ccc(-c2ccc(C(=O)N[C@@H](CC(C)C)C(=O)N[C@H](C#N)C[C@@H]3CCNC3=O)cc2F)cc1 [18i] |  |  |  | IC50 (recombinant M^Pro; [2]): 0.661 µM
17 | COc1cccc(-c2ccc(C(=O)N[C@@H](CC(C)C)C(=O)N[C@H](C#N)C[C@@H]3CCNC3=O)cc2F)c1 [18h] |  |  |  | IC50 (recombinant M^Pro; [2]): 0.694 µM
18 | COc1cccc(-c2ccc(C(=O)N[C@@H](CC(C)C)C(=O)N[C@H](C#N)C[C@@H]3CCNC3=O)c(C)c2)c1 [18j] |  |  |  | IC50 (recombinant M^Pro; [2]): 0.163 µM
19 | CC(C)C[C@@H](NC(=O)c1ccc(-c2ccc(F)nc2)cc1)C(=O)N[C@H](C#N)C[C@@H]1CCNC1=O [12c] | < 50% | > 95% | 5.83 µM | 
20 | COc1ccc(-c2ccc(C(=O)N3C[C@@H]4CCC[C@@H]4[C@H]3C(=O)N[C@H](C#N)C[C@@H]3CCNC3=O)cc2)cc1 [22h] |  |  |  | IC50 (recombinant M^Pro; [1]): 2.99 µM

Row | SMILES | inhibition at 10 µM (PL^Pro) | inhibition at 10 µM (recombinant M^Pro) | IC50 (recombinant M^Pro; [3]) | other results
21 | COc1cccc(-c2ccc(C(=O)N3C[C@@H]4CCC[C@@H]4[C@H]3C(=O)N[C@H](C#N)C[C@@H]3CCNC3=O)cc2)c1 [22g] |  |  |  | IC50 (recombinant M^Pro; [1]): 2.67 µM
22 | CCC[C@H](NC(=O)c1ccc(-c2ccc(OC)c(OC)c2)cc1)C(=O)N[C@H](C#N)C[C@@H]1CCNC1=O [12g] | < 50% | > 95% | 9.55 µM | 
23 | CC(C)C[C@H](NC(=O)c1ccc(-c2ccc3cnn(C)c3c2)cc1)C(=O)N[C@H](C#N)C[C@@H]1CCNC1=O [6n] | < 50% | > 95% | 0.653 µM | 
24 | CCOc1ccc(-c2ccc(C(=O)N[C@@H](CC(C)C)C(=O)N[C@H](C#N)C[C@@H]3CCNC3=O)cc2)cc1F [6m] | < 50% | > 95% | 0.731 µM | 
25 | CC(C)C[C@H](NC(=O)c1ccc(-c2ccc(F)cc2)cc1)C(=O)N[C@H](C#N)C[C@@H]1CCNC1=O [6b] | < 50% | > 95% | 0.849 µM | activity / biochemical potency against M^Pro (in words) (recombinant M^Pro): submicromolar
26 | CCC[C@H](NC(=O)c1ccc(-c2ccc(OC)nc2)cc1)C(=O)N[C@H](C#N)C[C@@H]1CCNC1=O [12j] | < 50% | < 95% |  | 
27 | COc1cccc(-c2ccc(C(=O)N3C[C@@H]4CCC[C@@H]4[C@H]3C(=O)N[C@H](C#N)C[C@@H]3CCNC3=O)c(F)c2)c1 [22i] |  |  |  | IC50 (recombinant M^Pro; [1]): 1.91 µM
28 | COc1cccc(-c2ccc(C(=O)N[C@@H](CC(C)C)C(=O)N[C@H](C#N)C[C@@H]3CCNC3=O)c(C(F)(F)F)c2)c1 [18l] |  |  |  | IC50 (recombinant M^Pro; [2]): 0.115 µM
29 | COc1ccc(-c2ccc(C(=O)NC3(C(=O)N[C@H](C#N)C[C@@H]4CCNC4=O)CCCCC3)cc2)cc1 [12p] | < 50% | > 95% |  | 
30 | CC(C)C[C@H](NC(=O)c1ccc(-c2ccc(Cl)cc2)cc1)C(=O)N[C@H](C#N)C[C@@H]1CCNC1=O [6a] | < 50% | > 95% | 0.724 µM | activity / biochemical potency against M^Pro (in words) (recombinant M^Pro): submicromolar
31 | COc1ccc(-c2ccc(C(=O)N3C[C@H]4[C@@H]([C@H]3C(=O)N[C@H](C#N)C[C@@H]3CCNC3=O)C4(C)C)c(F)c2)cc1 [22d] |  |  |  | IC50 (recombinant M^Pro; [1]): 0.394 µM
32 | CCC[C@H](NC(=O)c1ccc(-c2ccc(OC)cc2)cc1)C(=O)N[C@H](C#N)C[C@@H]1CCNC1=O [12f] | < 50% | > 95% | 5.48 µM | 
33 | COc1ccccc1-c1ccc(C(=O)N[C@@H](CC(C)C)C(=O)N[C@H](C#N)C[C@@H]2CCNC2=O)cc1 [6g] | < 50% | > 95% | 1.09 µM | IC50 (recombinant M^Pro; read-out: M^Pro IC50): > 1 µM
34 | COc1cccc(-c2ccc(C(=O)N3C[C@H]4[C@@H]([C@H]3C(=O)N[C@H](C#N)C[C@@H]3CCNC3=O)C4(C)C)c(F)c2)c1 [22c] |  |  |  | IC50 (recombinant M^Pro; [1]): 0.465 µM
35 | N#C[C@H](C[C@@H]1CCNC1=O)NC(=O)C1(NC(=O)c2ccc(Br)cc2)CCCCC1 [11e] | < 50% | > 95% |  | 
36 | CCC[C@H](NC(=O)c1ccc(-c2ccccc2OC)cc1)C(=O)N[C@H](C#N)C[C@@H]1CCNC1=O [12d] | < 50% | < 95% |  | 
37 | Cn1cc2c(-c3ccc(C(=O)N[C@@H](CC4CCCCC4)C(=O)N[C@H](C#N)C[C@@H]4CCNC4=O)cc3)cccc2n1 [12n] | < 50% | < 95% | 1.28 µM | 
38 | COc1ccc(-c2cc(F)c(C(=O)N[C@@H](CC(C)C)C(=O)N[C@H](C#N)C[C@@H]3CCNC3=O)cc2F)cc1 [18g] |  |  |  | IC50 (recombinant M^Pro; [2]): 0.229 µM
39 | CCOc1ccc(-c2ccc(C(=O)N[C@@H](CC(C)C)C(=O)N[C@H](C#N)C[C@@H]3CCNC3=O)cc2)cc1 [6c] | < 50% | > 95% | 0.765 µM | 
40 | CCCC(NC(=O)c1ccc(Br)cc1)C(=O)NC(C#N)CC1CCNC1=O (stereo not drawn) [11c] | < 50% | < 95% |  | 
